Experimental findings from article PMC5520216, “Frutapin, a lectin from Artocarpus incisa (breadfruit): cloning, expression and molecular insights” (Bioscience Reports, 2017) are described below.

For test [1], the target named is T1, Frutapin (FTP), recombinant (Artocarpus altilis, UniProt A0A2D0TC52).
T1 construct: full-length FTP (450 bp clone from leaf cDNA, codon-optimised ORF), pET SUMO in E. coli BL21, His-SUMO tag cut off with ULP1
In words: inhibition of haemagglutination of red blood cells, double serial dilution. It counts as cell-based. The following applies: 37 °C, 1 h, visual read-out, carbohydrate-binding site.

For test [2], the target named is T1, Frutapin (FTP), recombinant. In words: X-ray co-crystal structure, […] Å. As to conditions: co-crystallised with 100 mM glucose, glycerol removed; carbohydrate-binding site of all four monomers.
For test [3] the target is unchanged. In words: X-ray co-crystal structure, […] Å. As to conditions: co-crystallised with 20 mM mannose, glycerol removed; carbohydrate-binding site of all four monomers.
For test [4], the target named is Frutapin (FTP), recombinant, mannose-binding lectin from Artocarpus incisa (breadfruit) (Artocarpus incisa (breadfruit)). In words: native gel or EMSA; native gel electrophoresis of purified FTP after removal of the SUMO tag; size from a plot of Rf against log10 (MWt).

T1 sequence (A0A2D0TC52 entry or part of it): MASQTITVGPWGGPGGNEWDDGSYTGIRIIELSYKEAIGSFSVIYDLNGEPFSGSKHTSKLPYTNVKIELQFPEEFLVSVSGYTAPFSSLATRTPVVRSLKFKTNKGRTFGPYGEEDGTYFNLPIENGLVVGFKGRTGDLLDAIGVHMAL

On to `OC[C@H]1OC(O)[C@H](O)[C@@H](O)[C@@H]1O` (some centres unmarked) [glucose], for which the inhibitory sugar concentration in test [1] (42.8 µg/ml FTP) worked out at 100 mM. Regarding `OC[C@H]1OC(O)[C@@H](O)[C@@H](O)[C@@H]1O` (some centres unmarked) [mannose], the inhibitory sugar concentration in test [1] (12.4 µg/ml FTP) is 6.25 mM. Turning to `OC[C@H]1O[C@H](O)[C@H](O)[C@@H](O)[C@@H]1O` [α-D-glucose], the “X-ray co-crystal structure, 1.60 Å” value in test [2] was “FTP was also co-crystallized with mannose and glucose”. For the compound `OC[C@H]1O[C@H](O)[C@@H](O)[C@@H](O)[C@@H]1O` [α-D-mannose], the “X-ray co-crystal structure, 1.70 Å” value in test [3] was “FTP was also co-crystallized with mannose and glucose”.

Regarding “Frutapin (FTP), recombinant, mannose-binding lectin from Artocarpus incisa (breadfruit) (natural protein)”, in test [4], the stoichiometry N (in general, the number of molecules, sites or subunits per partner or assembly) stood at 4.
